Assay results taken from patent US7368287B2, “Use of L-α-lysophosphatidylcholine to obtain the differentiation of monocytes into mature dendritic cells in vitro” (Biomerieux, priority 2002, dated 2008).
Values belong to the molecule of their own block, whether it stands above or below them.

How the values were obtained:
PAF receptor = assay: CD86 expression in presence of PAF or of the PAF antagonist BN52021; format: cell-based, human; conditions: differentiation induced by oxidized LDLs; BN52021 added on 5th day
Protocol: The phenotype of the “control” and “LPC” cells is analyzed by flow cytometry on a FACSCalibur (Becton Dickinson, Francklin Lakes, N.J., USA) using FITC (fluorosceine isothiocyanate)-conjugated anti-CD14, anti-HLA-DR and anti-CD80 and PE (phycoerythrin)-conjugated anti-CD1a, anti-CD83, anti-CD86 and anti-CD40 (Beckman Coulter). According to the state of the art, monocytes preferentially have a CD14+ CD1a− phenotype, immature dendritic cells preferentially have a CD14− CD1a+CD86− phenotype, and mature dendritic cells preferentially have a CD14− CD1a intermediate—CD86+ phenotype.
Thus, a solution of PAF (Sigma, 5 μM) was added to the culture medium on the 5th day of monocyte differentiation. The expression of CD86 by the “control” cells and by the “LPC” cells, obtained in the presence or in the absence of PAF, was analyzed according to the protocol described in example 2, and the results are given in table 9.
Thus, a solution of the PAF antagonist BN52021 (Biomol, Plymouth Meeting, USA, 100 μM) was added to the culture medium on the 5th day of monocyte differentiation. The expression of CD86 by the “control” and “LPC” cells, obtained in the presence or in the absence of BN52021, was analyzed according to the protocol described in example 2, and the results are given in table 10.

BALB/c mice [1] = assay: Proliferation of HEL-specific T cells of popliteal lymph nodes after immunization (thymidine incorporation); format: in vivo, mouse
Protocol: LPC stimulates the T response specific for a co-injected soluble antigen. LPC dissolved in PBS (250 or 500 nmol in 50 μl) is mixed with hen egg lysozyme (HEL, 50 μg) and this mixture is injected into the plantar foot pad of BALB/c mice. After 7 days, the popliteal lymph nodes are removed and their cells are restimulated in triplicate in vitro, in a culture medium containing 30 μM of HEL antigen, or in the absence of HEL. After 3 days, the T lymphocyte proliferation is measured by incorporation of triturated thymidine for 16 h.
INTRALIPID® blocks the inflammation and the immune response induced by LPC, in vivo. In this example, 3 batches of BALB/c mice are immunized against the hen egg lysozyme (HEL) antigen by injection of 50 μl of solution into the plantar foot pad. The “HEL” control batch receives 50 μg of HEL, the “HEL+Intralipid” batch receives a mixture of INTRALIPID® (45 μl) and of 50 μg of HEL (5 μl of a solution at 10 mg/ml). The “HEL+LPC” batch receives 50 μg of HEL with 350 nmol of LPC dissolved in PBS. The “HEL+LPC+Intralipid” batch receives 50 μg of HEL mixed with 350 nmol of LPC dissolved in 45 μl of INTRALIPID®. After 24 hours, the thickness of the foot pads is measured using a micrometer, and compared with the measurement taken before injection. The difference in thickness is proportional to the intensity of the inflammation.
Seven days after the injection, the popliteal lymph nodes are removed and their cells are restimulated in vitro in triplicate, in a culture medium containing 10 μM of HEL or in the absence of HEL. After 3 days, the proliferation of HEL-specific T lymphocytes is measured by incorporation of triturated thymidine for 16 h.

PPARγ = target: T1, PPARγ (Homo sapiens, UniProt P37231); assay: PPAR binding activity by gel shift on nuclear proteins of treated monocytes; format: cell-based; conditions: Table 7; ciglitizone 50 μM 15 minutes before LPC 40 μM for 2 hours; control = 100%
T1 construct: After having harvested the cells, the nuclear proteins were extracted with the Nuclear extract Kit (Sigma); endogenous in cells; host or cells: monocytes undergoing differentiation into dendritic cells (nuclear extract)
T1 sequence (P37231 1-505): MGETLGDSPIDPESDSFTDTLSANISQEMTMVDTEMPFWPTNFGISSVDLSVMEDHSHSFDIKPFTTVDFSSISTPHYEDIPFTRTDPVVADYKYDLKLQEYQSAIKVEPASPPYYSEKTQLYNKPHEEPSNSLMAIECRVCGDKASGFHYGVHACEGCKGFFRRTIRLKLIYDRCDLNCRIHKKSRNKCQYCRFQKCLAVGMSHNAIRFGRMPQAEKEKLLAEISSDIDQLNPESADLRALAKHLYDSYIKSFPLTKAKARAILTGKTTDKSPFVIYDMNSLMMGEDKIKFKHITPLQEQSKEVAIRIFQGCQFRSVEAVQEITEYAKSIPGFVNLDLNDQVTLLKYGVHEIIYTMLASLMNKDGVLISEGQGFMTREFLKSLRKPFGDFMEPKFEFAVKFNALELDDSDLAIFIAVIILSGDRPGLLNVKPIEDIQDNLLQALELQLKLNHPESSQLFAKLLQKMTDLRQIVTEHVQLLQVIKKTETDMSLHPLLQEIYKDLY
Protocol: (§1) Next, the inventors investigated the transcription factors involved in the maturation process induced by LPC. In order to determine whether PPARs are involved in the LPC-induced maturation, the ability of the two transcription factors PPARγ and PPARδ to bind was analyzed using the gel shift technique. 3 isotypes of PPAR nuclear receptors (peroxisome proliferator-activated receptor) exist: α, γ and δ. PPARγs are the targets for molecules of the thiazolidinedione class, such as ciglitizone, used in the treatment of type II diabetes. PPARδs have a broader expression and can be repressors of PPARγs. The monocytes undergoing differentiation were incubated for two hours with a solution of LPC (40 μM) (“LPC” cells). “Control” cells are also obtained in the absence of LPC in the culture medium. After having harvested the cells, the nuclear proteins were extracted with the Nuclear extract Kit (Sigma). The nuclear proteins were then brought into contact with a ratioactively labeled probe containing a response element recognized by PPARs. […] The PPAR binding activity was determined by measuring the intensity of these bands. These activities are expressed as a percentage with respect to the “control” cells. […]
(§2) The activity of the PPARγ and PPARδ transcription factors was measured in these cells by the gel shift technique, as described above.
(§3) INTRALIPID® regulates PPARs in vitro. […] The cells were harvested after 1 h, 2 h or 8 h of incubation with INTRALIPID®, the nuclear proteins were extracted and the activity of PPARγ and PPARδ was determined as described in example 6.
(§4) Secondly, a solution of INTRALIPID® (50 μg/ml of phospholipids) was added to the culture medium on the 5th day of monocyte differentiation, 15 minutes before the addition of a solution of LPC (40 μM) (“LPC+Intralipid” cells). […] The cells were harvested after 2 h of incubation, the nuclear proteins were extracted and the activity of PPARγ and PPARδ was determined as described in example 6.

PPARδ = assay: as above; format: cell-based, human; conditions: Table 7; ciglitizone 50 μM 15 minutes before LPC 40 μM for 2 hours; control = 100%
Protocol: as §1, §2, §3, §4

BALB/c mice [2] = assay: Migration of skin dendritic cells to draining lymph nodes (FITC uptake); format: in vivo, mouse; conditions: auricular and maxillary lymph nodes after 24 h; LPC 0.1 M on ear skin 10 minutes before FITC 1.5%
Protocol: This fluorescent label is taken up by the dendritic cells of the skin. After 24 h, the auricular and maxillary lymph nodes are removed and the cells are placed in suspension. The cell suspension is enriched in dendritic cells by metrizamide (Sigma) gradient centrifugation. The cells are labeled with an antibody (Pharmingen) which recognizes Major Histocompatibility Complex (MHC) […] molecules and analysis by flow cytometry makes it possible to quantify the percentage of large cells (dendritic cells) expressing the MHC class II molecules and containing FITC. These cells are presenting cells which have taken up the FITC in the periphery and have migrated to the lymph nodes.

[3] = Table 18, HEL 50 μg, LPC 350 nmol, Intralipid 45 μl, seven days after injection

- Inhibition of the action of the oxidized LDLs (PAF receptor): 100%
Molecule: CC1C(=O)OC2C(O)C34C5CC(C(C)(C)C)C36C(OC(=O)C6O)OC4(C(=O)O5)C12O (centres unmarked) [BN52021, reference compound]

Molecule: HEL: hen egg lysozyme, soluble antigen; antigen-only group
- Restimulation with HEL (30 μM) (BALB/c mice [1]; Table 13, immunization with HEL 50 μg alone): 5370 ± 1983 CPM
- Proliferation in the absence of HEL (BALB/c mice [1]; Table 13, immunization with HEL 50 μg alone, day 7 lymph node cells): 1315 ± 275 CPM
- Proliferation in the absence of HEL (BALB/c mice [1]; [3]): 370 ± 212 cpm
- Restimulation with HEL (10 μM) (BALB/c mice [1]; [3]): 738 ± 408 cpm

- PPARγ binding activity (PPARγ): 237%
Molecule: CC1(COc2ccc(CC3SC(=O)NC3=O)cc2)CCCCC1 (centres unmarked) [Ciglitizone, reference compound]
- PPARδ binding activity (PPARδ): 106%

Molecule: O=C1OC2(c3ccc(O)cc3Oc3cc(O)ccc32)c2ccc(N=C=S)cc21 [FITC]
- FITC+ dendritic cells (BALB/c mice [2]): 7.1 ± 1.7%
